Reference: patent US8173645B2 (Takeda San Diego, Inc., priority 2007, dated 2012)

Target: T1, glucokinase (GK), residues 12-465 of the human enzyme (Homo sapiens, UniProt P35557)
T1 construct: I.D. No. 1 corresponds to residues 12-465 of glucokinase; made in house; host or cells: E. coli DH10b-Tlr
T1 sequence (P35557 with tags, fused parts or gaps isoform P35557-2): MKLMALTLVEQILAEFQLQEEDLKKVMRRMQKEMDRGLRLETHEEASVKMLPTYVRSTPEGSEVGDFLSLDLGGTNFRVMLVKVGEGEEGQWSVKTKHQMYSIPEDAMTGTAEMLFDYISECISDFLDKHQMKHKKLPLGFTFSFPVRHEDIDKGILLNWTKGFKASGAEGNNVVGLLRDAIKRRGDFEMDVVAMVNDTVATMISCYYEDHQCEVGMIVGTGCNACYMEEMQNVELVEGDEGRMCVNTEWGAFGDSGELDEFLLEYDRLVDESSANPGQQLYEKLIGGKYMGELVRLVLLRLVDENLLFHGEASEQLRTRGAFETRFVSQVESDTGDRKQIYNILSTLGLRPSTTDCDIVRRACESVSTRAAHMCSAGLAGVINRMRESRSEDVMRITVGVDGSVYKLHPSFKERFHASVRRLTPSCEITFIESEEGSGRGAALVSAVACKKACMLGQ
Test: Enzymatic glucokinase activity assay (KinaseGlo luminescence, ATP consumption)
Type: biochemical
Settings: 5 μM ATP, 5 mM Glucose; for EC50: GK activation, Kact = concentration giving 50% of the maximal increase in GK activity, read-out: pKact; for Emax: calculated maximal gain in GK enzyme activity at a saturating concentration of the compound, read-out: % ACTmax
How it was run: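 C-terminally FLAG-tagged enzyme expressed in E. coli and purified. Reaction: 25 mM Hepes pH 7.2, 25 mM NaCl, 10 mM MgCl2, 0.01% Brij35, 1 mM DTT, 5 μM ATP, 5 mM glucose, 2% DMSO, 60 min at room temperature. Remaining ATP was read by luciferase luminescence; pKact and % ACTmax came from nonlinear fits of 11-point 2-fold dilutions.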

Row | Structure (SMILES) | EC50 [nM] | Emax [%]
1 | O=C(Nc1nccs1)[C@H](CC1CCCCC1)N1CCN(S(=O)(=O)c2cc(Cl)cc(Cl)c2)CC1=O [Example 57, (S)-3-cyclohexyl-2-(4-(3,5-dichlorophenylsulfonyl)-2-oxopiperazin-1-yl)-N-(thiazol-2-yl)propanamide] | ≤ 631 | 74.1 to 97
2 | O=C(Nc1nccs1)[C@H](CC1CCCCC1)N1CCN(S(=O)(=O)c2ccco2)CC1=O [Example 108, (S)-3-cyclohexyl-2-(4-(furan-2-ylsulfonyl)-2-oxopiperazin-1-yl)-N-(thiazol-2-yl)propanamide] | ≤ 631 | 74.1 to 97
3 | O=C(Nc1nccs1)[C@H](CC1CCCCC1)N1CCN(S(=O)(=O)c2cccc(Cl)c2)CC1=O [Example 67, (S)-2-(4-(3-chlorophenylsulfonyl)-2-oxopiperazin-1-yl)-3-cyclohexyl-N-(thiazol-2-yl)propanamide] | ≤ 631 | 108 to 119
4 | CCn1cc(S(=O)(=O)N2CCN([C@@H](CC3CCCCC3)C(=O)Nc3nccs3)C(=O)C2)cn1 [Example 110, (S)-3-cyclohexyl-2-(4-(1-ethyl-1H-pyrazol-4-ylsulfonyl)-2-oxopiperazin-1-yl)-N-(thiazol-2-yl)propanamide] | ≥ 3160 | ≥ 119
5 | Cc1cccc(S(=O)(=O)N2CCN([C@@H](CC3CCCCC3)C(=O)Nc3nccs3)C(=O)C2)c1 [Example 192, (S)-3-cyclohexyl-2-(2-oxo-4-(m-tolylsulfonyl)piperazin-1-yl)-N-(thiazol-2-yl)propanamide] | ≤ 631 | ≥ 119
6 | CC(=O)c1ccc(S(=O)(=O)N2CCN([C@@H](CC3CCCCC3)C(=O)Nc3nccs3)C(=O)C2)cc1 [Example 206] | ≥ 3160 | 74.1 to 97
7 | O=C(Nc1nccs1)[C@H](CC1CCCCC1)N1CCN(S(=O)(=O)c2ccc(Br)s2)CC1=O [Example 203, (S)-2-(4-(5-bromothiophen-2-ylsulfonyl)-2-oxopiperazin-1-yl)-3-cyclohexyl-N-(thiazol-2-yl)propanamide] | ≤ 631 | 108 to 119
8 | CC(=O)Nc1ccc(S(=O)(=O)N2CCN([C@@H](CC3CCCCC3)C(=O)Nc3nccs3)C(=O)C2)cc1 [Example 45, (S)-2-(4-(4-acetamidophenylsulfonyl)-2-oxopiperazin-1-yl)-3-cyclohexyl-N-(thiazol-2-yl)propanamide] | ≥ 3160 | 97.1 to 107
9 | O=C(Nc1ncc(Cl)s1)[C@H](CC1CCOCC1)N1CCN(S(=O)(=O)C2CCCC2)CC1=O [Example 28, (S)-N-(5-chlorothiazol-2-yl)-2-(4-(cyclopentylsulfonyl)-2-oxopiperazin-1-yl)-3-(tetrahydro-2H-pyran-4-yl)propanamide] | ≤ 631 | ≥ 119
10 | Cc1ccc2sc(S(=O)(=O)N3CCN([C@@H](CC4CCCCC4)C(=O)Nc4nccs4)C(=O)C3)cc2c1 [Example 107, (S)-3-cyclohexyl-2-(4-(5-methylbenzo[b]thiophen-2-ylsulfonyl)-2-oxopiperazin-1-yl)-N-(thiazol-2-yl)propanamide] | 794 to 1260 | ≤ 74
11 | O=C(Nc1nccs1)[C@H](CC1CCCCC1)N1CCN(C(=O)Nc2ccc3c(c2)OCCO3)CC1=O [Example 145, (S)-4-(3-cyclohexyl-1-oxo-1-(thiazol-2-ylamino)propan-2-yl)-N-(2,3-dihydrobenzo[b][1,4]dioxin-6-yl)-3-oxopiperazine-1-carboxamide] | ≥ 3160 | 74.1 to 97
12 | O=C(Nc1nccs1)[C@H](CC1CCCCC1)N1CCN(S(=O)(=O)C2CC2)CC1=O [Example 96, (S)-3-cyclohexyl-2-(4-(cyclopropylsulfonyl)-2-oxopiperazin-1-yl)-N-(thiazol-2-yl)propanamide] | 794 to 1260 | 108 to 119
13 | O=C(Nc1nccs1)[C@H](CC1CCCCC1)N1CCN(S(=O)(=O)c2ccc(F)cc2)CC1=O [Example 89, (S)-3-cyclohexyl-2-(4-(4-fluorophenylsulfonyl)-2-oxopiperazin-1-yl)-N-(thiazol-2-yl)propanamide] | 794 to 1260 | 97.1 to 107
14 | O=C(Nc1ncc(Cl)s1)[C@H](CC1CCOCC1)N1CCN(S(=O)(=O)c2cccc(F)c2)CC1=O [Example 150, (S)-N-(5-chlorothiazol-2-yl)-2-(4-(3-fluorophenylsulfonyl)-2-oxopiperazin-1-yl)-3-(tetrahydro-2H-pyran-4-yl)propanamide] | ≤ 631 | 108 to 119
15 | O=C(Nc1nccs1)[C@H](CC1CCCCC1)N1CCN(S(=O)(=O)c2ccc3ncsc3c2)CC1=O [Example 97, (S)-2-(4-(benzo[d]thiazol-6-ylsulfonyl)-2-oxopiperazin-1-yl)-3-cyclohexyl-N-(thiazol-2-yl)propanamide] | 794 to 1260 | 97.1 to 107
16 | O=C(Nc1nccs1)[C@H](CC1CCCCC1)N1CCN(S(=O)(=O)Cc2ccc(Cl)cc2)CC1=O [Example 69] | 1580 to 2510 | 97.1 to 107

Second part, the compound after the results:

Row | EC50 [nM] | Emax [%] | Structure (SMILES)
17 | ≤ 631 | ≤ 74 | Cc1cc(S(=O)(=O)N2CCN([C@@H](CC3CCCCC3)C(=O)Nc3nccs3)C(=O)C2)c(C)cc1Cl [Example 186, (S)-2-(4-(4-chloro-2,5-dimethylphenylsulfonyl)-2-oxopiperazin-1-yl)-3-cyclohexyl-N-(thiazol-2-yl)propanamide]
18 | 794 to 1260 | ≥ 119 | O=C(Nc1ncc(Cl)s1)C(CC1CCOCC1)N1CCN(S(=O)(=O)c2ccc(F)cc2)CC1=O (centres unmarked) [Example 33, N-(5-chlorothiazol-2-yl)-2-(4-(4-fluorophenylsulfonyl)-2-oxopiperazin-1-yl)-3-(tetrahydro-2H-pyran-4-yl)propanamide]
19 | ≤ 631 | ≥ 119 | O=C(Nc1ncc(F)s1)[C@H](CC1CCOCC1)N1CCN(S(=O)(=O)c2cccc(F)c2)CC1=O [Example 152, (S)-2-(4-(3-fluorophenylsulfonyl)-2-oxopiperazin-1-yl)-N-(5-fluorothiazol-2-yl)-3-(tetrahydro-2H-pyran-4-yl)propanamide]
20 | 1580 to 2510 | 108 to 119 | O=C(Nc1nccs1)[C@H](CC1CCCCC1)N1CCN(C(=S)NCc2ccccc2)CC1=O [Example 82, (S)-2-(4-(benzylcarbamothioyl)-2-oxopiperazin-1-yl)-3-cyclohexyl-N-(thiazol-2-yl)propanamide]
21 | 1580 to 2510 | 97.1 to 107 | O=C(Nc1nccs1)[C@H](CC1CCCCC1)N1CCN(C(=S)NC2CC2)CC1=O [Example 129, (S)-3-cyclohexyl-2-(4-(cyclopropylcarbamothioyl)-2-oxopiperazin-1-yl)-N-(thiazol-2-yl)propanamide]
22 | ≥ 3160 | 97.1 to 107 | O=C(Nc1nccs1)[C@H](CC1CCCCC1)N1CCN(C(=S)Nc2ccc(OC(F)F)cc2)CC1=O [Example 135, (S)-3-cyclohexyl-2-(4-(4-(difluoromethoxy)phenylcarbamothioyl)-2-oxopiperazin-1-yl)-N-(thiazol-2-yl)propanamide]
23 | 1580 to 2510 | ≤ 74 | O=C(Nc1nccs1)[C@H](CC1CCCCC1)N1CCN(S(=O)(=O)c2ccc(-c3ccno3)s2)CC1=O [Example 174, (S)-3-cyclohexyl-2-(4-(5-(isoxazol-5-yl)thiophen-2-ylsulfonyl)-2-oxopiperazin-1-yl)-N-(thiazol-2-yl)propanamide]
24 | 1580 to 2510 | ≤ 74 | O=C(Nc1nccs1)[C@H](CC1CCCCC1)N1CCN(S(=O)(=O)c2ccc(Oc3ccccc3)nc2)CC1=O [Example 209, (S)-3-cyclohexyl-2-(2-oxo-4-(6-phenoxypyridin-3-ylsulfonyl)piperazin-1-yl)-N-(thiazol-2-yl)propanamide]
25 | 794 to 1260 | ≤ 74 | COc1ccc(Oc2cccc(S(=O)(=O)N3CCN([C@@H](CC4CCCCC4)C(=O)Nc4nccs4)C(=O)C3)c2)cc1 [Example 228, (S)-3-cyclohexyl-2-(4-(3-(4-methoxyphenoxy)phenylsulfonyl)-2-oxopiperazin-1-yl)-N-(thiazol-2-yl)propanamide]
26 | ≤ 631 | 108 to 119 | O=C(Nc1nccs1)[C@H](CC1CCCCC1)N1CCN(S(=O)(=O)c2ccccc2C(F)(F)F)CC1=O [Example 71, (S)-3-cyclohexyl-2-(2-oxo-4-(2-(trifluoromethyl)phenylsulfonyl)piperazin-1-yl)-N-(thiazol-2-yl)propanamide]
27 | ≤ 631 | ≥ 119 | O=C(Nc1nccs1)[C@H](CC1CCCCC1)N1CCN(S(=O)(=O)c2cc(Cl)ccc2F)CC1=O [Example 185, (S)-2-(4-(5-chloro-2-fluorophenylsulfonyl)-2-oxopiperazin-1-yl)-3-cyclohexyl-N-(thiazol-2-yl)propanamide]
28 | ≥ 3160 | ≤ 74 | O=C(Nc1nccs1)[C@H](CC1CCCCC1)N1CCN(C(=O)NCc2ccc(Cl)cc2)CC1=O [Example 138, (S)-N-(4-chlorobenzyl)-4-(3-cyclohexyl-1-oxo-1-(thiazol-2-ylamino)propan-2-yl)-3-oxopiperazine-1-carboxamide]
